{
  "source": "paper PMC10313368",
  "about": "(The Journal of Clinical Investigation, 2023)",
  "key": {"HIF-2α": {"target": "T1, HIF-2α (Mus musculus, UniProt P97481)", "T1 construct": "from tissue; host or cells: retina of C57BL/6 OIR pups", "T1 sequence (P97481 whole entry)": "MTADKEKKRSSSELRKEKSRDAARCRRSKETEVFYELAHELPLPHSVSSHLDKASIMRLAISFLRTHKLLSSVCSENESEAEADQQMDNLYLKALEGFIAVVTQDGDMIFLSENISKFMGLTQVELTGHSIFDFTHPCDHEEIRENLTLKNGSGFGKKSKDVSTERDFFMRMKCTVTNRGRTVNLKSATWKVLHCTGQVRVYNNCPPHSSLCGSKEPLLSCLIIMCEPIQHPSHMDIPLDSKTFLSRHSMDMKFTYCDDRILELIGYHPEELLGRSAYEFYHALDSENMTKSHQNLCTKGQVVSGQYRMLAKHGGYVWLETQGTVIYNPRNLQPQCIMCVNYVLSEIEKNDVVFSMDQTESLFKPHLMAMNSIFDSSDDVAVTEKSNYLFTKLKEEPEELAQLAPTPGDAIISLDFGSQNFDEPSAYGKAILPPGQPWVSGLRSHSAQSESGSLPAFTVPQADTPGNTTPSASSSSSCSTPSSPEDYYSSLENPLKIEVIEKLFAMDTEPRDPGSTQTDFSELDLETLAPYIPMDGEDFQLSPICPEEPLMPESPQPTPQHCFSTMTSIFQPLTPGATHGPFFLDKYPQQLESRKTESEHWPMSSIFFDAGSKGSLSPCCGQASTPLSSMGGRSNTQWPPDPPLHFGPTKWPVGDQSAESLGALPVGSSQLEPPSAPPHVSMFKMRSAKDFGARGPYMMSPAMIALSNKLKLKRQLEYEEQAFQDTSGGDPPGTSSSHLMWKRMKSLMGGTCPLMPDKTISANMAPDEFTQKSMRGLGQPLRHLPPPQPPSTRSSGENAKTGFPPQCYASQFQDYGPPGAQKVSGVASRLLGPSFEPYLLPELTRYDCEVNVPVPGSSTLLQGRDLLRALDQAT", "experiment": "Western blot of HIF-2α protein accumulation in retina of OIR mice (P14)", "format": "in vivo", "method": "Immunoblot assays. Cells, neurosensory retina, and D120 retinal organoid lysates were subjected to 4–15% gradient SDS/PAGE (Invitrogen). Immunoblot (Western blot or WB) assays were performed as previously described (1).\nReverse transcription and quantitative real-time PCR. Total RNA was isolated from cultured cells or retinas with PureLinkTM RNA Mini Kit (Invitrogen #12183025), and cDNA was prepared with MuLV Reverse Transcriptase (Applied Biosystems). Quantitative real-time PCR was performed with Power SYBR Green PCR Master Mix (Applied Biosystems) and MyiQ Real-Time PCR Detection System (Bio-Rad). Normalization was done using cyclophilin A for mouse tissue and human cell lines. Primers are listed in Supplemental Table 2.\nAngiogenesis array. […]\ncDNA was prepared with QuantiTect® Reverse Transcription Kit (Qiagen, Cat# 205311). […]\n4444554). […] The data were analyzed by using HPRT1 as endogenous […]\nHUVEC cells, Euclidean distance was used to quantify the difference in qPCR screening. The Euclidean distance was calculated using “dist” function from R’s default stat library that measures the distance between 2 vectors (i.e., total qPCR expression values in control and treatment). […]\nSTZ-induced diabetes mouse model. […] Blood glucose was measured on experimental day 28 after 16 hours fasting and mice with blood glucose level > 250 mg/dL were considered […]"}, "OIR mice": {"tested_on": "OIR mice", "experiment": "Retinal NV in the oxygen-induced retinopathy (OIR) mouse model", "format": "in vivo", "set-up": "Figure 14 C (retinal NV, OIR) / Figure 14 E (retinal NV, OIR): unit not given here", "description": "To characterize the contribution of these other HIF-regulated angiogenic factors to the promotion of ischemia-driven retinal NV in vivo, we used the classic oxygen-induced retinopathy (OIR) model characterized by Smith and colleagues ([35]). In stage 1 of this model, P7 pups are exposed to hyperoxia (75% O2) for 5 consecutive days (P7–P12), resulting in obliteration of the posterior retinal vasculature. In stage 2, pups (at P12) are returned to room air (21% O2). The resulting relative ischemia promotes the expression of angiogenic mediators that stimulate the development of retinal NV (peaking at P17; Figure 2A). […]\nAnimal studies. Eight-week-old pathogen-free female C57BL/6 mice were obtained from The Jackson Laboratory (JAX). Timed pregnant C57BL/6 mice were obtained from Charles River Laboratories. Mice heterozygous for HIF-1α have been previously described (2). Mice heterozygous for HIF-2α (strain number: 003266; common name: EPAS1 KO) were purchased […]\nOIR mouse model. OIR experiments were performed as previously described (1, 3). Briefly, C57BL/6 mice were placed in 75% O2 on P7. On P12, the mice were returned to room air and were […]\n(or vehicle) by intravitreal injection. Mice with body weight less than 6 g at P17 were excluded […]\nfrom analysis. Data were collected from both males and females and the results were combined since there was no apparent difference between sexes. Representative images for selected time points from a minimum of three independent experiments are shown. Data from 3-8 pups were obtained at each time point. […]\nIntraperitoneal (IP) injections. […]\nintraperitoneally using an insulin syringe in OIR pups. […]\nthe peritoneal cavity of neonatal C57BL/6 mice and STZ mice at indicated times, and the retinal vasculature and lysates for WB and qPCR were assessed at P17.\nIntraocular injections. Intravitreal injections were performed with a PLI-100A Pico-liter Microinjector (Warner Instruments, Harvard Bioscience) using pulled-glass micropipettes. Each micropipette was calibrated to deliver a 1 μl volume on depression of a foot switch. The mice were anesthetized with a ketamine (100 mg/kg) and xylazine (5mg/kg) mixture, and under a dissecting microscope, the sharpened tip of the micropipette was passed through the sclera just posterior to the limbus into the vitreous cavity and the foot switch was depressed, which caused fluid to […]\npenetrate into the vitreous space. […]\nmice for vascular permeability test, retinal vasculature, and lysates for WB and qPCR analysis.\nImmunoﬂuorescence assays. Details for antibodies are provided in Supplemental Table 1.\nImmunofluorescence assays in retinal organoids and mouse retinal tissues were performed as previously described (4). Briefly, mice were sacrificed using CO2 asphyxiation, and the eyes were enucleated and fixed with a solution of 4% paraformaldehyde in PBS (Thermo Scientific™) for two hours at RT, followed by washing with PBS for 10 minutes in a shaker. Retinas were isolated and incubated in 0.5% BSA solution overnight at 4 °C. Retinas were then washed with PBS 3 times for 10 minutes in the shaker and stained with isolectin B4 (Invitrogen; 1:200 dilution in PBS) overnight at 4 °C. After washing 3 times for 10 minutes each in the shaker, the retinas were mounted. Images were captured with Zeiss fluorescent microscope. Eight fields per eye (2 fields per petal) including area of neovascularization were selected and fluorescence intensity was measured by ImageJ software. […]\nThe eyes were enucleated and immediately immersed in 4% (wt/vol) paraformaldehyde for 2 hours at room temperature. Retinas were isolated and wholemounts prepared on clean glass slides and mounted vitreous side up under coverslips with antifade medium (Vectashield; Vector Laboratories, Burlingame, CA). Images were captured by Zeiss fluorescent microscope or confocal microscopy and fluorescence was quantified by the image J software (National Institutes"}, "[1]": {"settings": "OIR mice, Figure 10E, individual values"}},
  "note": "“And” between values parts separate entries of the source, which are not always exact repeats. Identical values can stand only once.",
  "data": [
    {"smiles": "Brc1ccc2c(-c3csc(-c4c[nH]c5c(Br)cccc45)n3)c[nH]c2c1", "note": "[32-134D, 4-(6-bromo-1H-indol-3-yl)-2-(7-bromo-1H-indol-3-yl)thiazole]", "values": [
      {"measurement": "HIF-2α protein accumulation in OIR mice", "setting": "HIF-2α; single i.p. injection 20 mg/kg, P14", "result": "reduction"},
      {"measurement": "accumulation of HIF-2α in OIR mice", "setting": "HIF-2α; single intraocular injection 14 ng at P12, P14", "result": "effectively reduced"},
      {"measurement": "retinal NV in OIR mice (in words)", "setting": "OIR mice; 5 consecutive days of i.p. injections 20 mg/kg 32-134D", "result": "marked reduction in retinal NV"},
      {"measurement": "Figure 14 C (retinal NV, OIR)", "setting": "OIR mice; 14ng intraocular, individual values", "result": "3.954 and 13.1715 and 11.5498 and 7.756 and 10.0719 and 10.2983"},
      {"measurement": "Figure 14 C (retinal NV, OIR)", "setting": "OIR mice; 70ng intraocular, individual values", "result": "3.009 and 6.226 and 3.283 and 2.049 and 6.5224 and 7.021"},
      {"measurement": "Figure 14 E (retinal NV, OIR)", "setting": "OIR mice; Figure 14E, 280ng intraocular, individual values", "result": "3.652 and 2.167 and 0.762 and 1.534 and 2.454 and 1.3869"},
      {"measurement": "avascular area (%)", "setting": "OIR mice; [1]", "result": "39.7919% and 29.3948% and 27.2246% and 38.1203% and 35.7742% and 31.6081% and 33.2821% and 34.1%"},
      {"measurement": "neovascular area (%)", "setting": "OIR mice; [1]", "result": "6.529% and 6.16% and 5.906% and 5.171% and 3.4% and 5.22% and 4.584% and 1.45%"},
      {"measurement": "inhibition of retinal NV at P17", "setting": "OIR mice; OIR mice, single intraocular injection 32-134D 14 ng at P12", "result": "~75", "unit": "%"},
      {"measurement": "inhibition of retinal NV at P17", "setting": "OIR mice; OIR mice, single intraocular injection 32-134D 280 ng at P12", "result": "approximately 85%"}
    ]}
  ]
}
